# Measured values published in patent EP0238060B1, “Cephalosporin derivatives, processes for their preparation and antibacterial agents” (Banyu Pharmaceutical Co., Ltd., priority 1986, dated 1987).
# Experiments:
# Experiment in all cases: In vitro antibacterial activity, agar plate dilution method (MIC)
# E.cloacae 963 = format: cell-based; settings: Enterobacter cloacae; E.cloacae 963; Mueller Hinton agar, inoculum 10⁶ CFU/ml, 37°C, 16 hours; read-out: Minimum Inhibitory Concentration (MIC: µg/ml)
# Experimental: (§1) The in vitro antibacterial activities of the compounds of the present invention against various microorganisms, were measured by the following agar plate dilution method. One platinum loopfull of each test microorganism incubated overnight in Mueller Hinton broth, was inoculated to Mueller Hinton agar (inoculum size: l0⁶ CFU/ml). Such culture media containing various antibiotics in various concentrations were prepared. After incubation at 37°C for l6 hours, the minimum inhibitory concentrations (MIC: µg/ml) were measured. As comparative compounds, Cefotaxime, Ceftazidime and the compounds of Reference Examples l to 4 were employed.
# E.coli CSH2 (RK1) = format: cell-based; settings: Escherichia coli, 16 h, read-out: Minimum Inhibitory Concentration (MIC: µg/ml)
# Experimental: as §1
# E.coli NIHJ JC2 = format: cell-based; settings: Escherichia coli, NIHJJC2; E.coli NIHJ JC2; Mueller Hinton agar, inoculum 10⁶ CFU/ml, 37°C, 16 hours; read-out: Minimum Inhibitory Concentration (MIC: µg/ml)
# Experimental: as §1
# Ps.aeruginosa IFO3445 = format: cell-based; settings: Pseudomonas aeruginosa; Ps.aeruginosa IFO3445; Mueller Hinton agar, inoculum 10⁶ CFU/ml, 37°C, 16 hours; read-out: Minimum Inhibitory Concentration (MIC: µg/ml)
# Experimental: as §1
# P.vulgaris HX-19 = format: cell-based; settings: Proteus vulgaris, HX19; P.vulgaris HX-19; Mueller Hinton agar, inoculum 10⁶ CFU/ml, 37°C, 16 hours; read-out: Minimum Inhibitory Concentration (MIC: µg/ml)
# Experimental: as §1
# C.freundii GN346 = format: cell-based; settings: Citrobacter freundii; C.freundii GN346 (β-Lactamase-producing strain); Mueller Hinton agar, inoculum 10⁶ CFU/ml, 37°C, 16 hours; read-out: Minimum Inhibitory Concentration (MIC: µg/ml)
# Experimental: as §1
# S.aureus BB5703 = format: cell-based; settings: Staphylococcus aureus; S.aureus BB5703; Mueller Hinton agar, inoculum 10⁶ CFU/ml, 37°C, 16 hours; read-out: Minimum Inhibitory Concentration (MIC: µg/ml)
# Experimental: as §1
# S.marcescens IAM 1184 = format: cell-based; settings: Serratia marcescens, IAM1184; S.marcescens IAM 1184; Mueller Hinton agar, inoculum 10⁶ CFU/ml, 37°C, 16 hours; read-out: Minimum Inhibitory Concentration (MIC: µg/ml)
# Experimental: as §1
# K.pneumoniae No. 42 = format: cell-based; settings: Klebsiella pneumoniae; K.pneumoniae No. 42 (β-Lactamase-producing strain); Mueller Hinton agar, inoculum 10⁶ CFU/ml, 37°C, 16 hours; read-out: Minimum Inhibitory Concentration (MIC: µg/ml)
# Experimental: as §1
# S.aureus 209P NIHJ-JC1 = format: cell-based; settings: Staphylococcus aureus; S.aureus 209P NIHJ-JC1; Mueller Hinton agar, inoculum 10⁶ CFU/ml, 37°C, 16 hours; read-out: Minimum Inhibitory Concentration (MIC: µg/ml)
# Experimental: as §1
# E.coli CSH(RE45) = format: cell-based; settings: Escherichia coli, 16 h, read-out: Minimum Inhibitory Concentration (MIC: µg/ml)
# Experimental: as §1
# Ps.aeruginosa AKR17 = format: cell-based; settings: Pseudomonas aeruginosa; Ps.aeruginosa AKR17; Mueller Hinton agar, inoculum 10⁶ CFU/ml, 37°C, 16 hours; read-out: Minimum Inhibitory Concentration (MIC: µg/ml)
# Experimental: as §1
# M.morganii GN5407 = format: cell-based; settings: Morganella morganii; M.morganii GN5407 (β-Lactamase-producing strain); Mueller Hinton agar, inoculum 10⁶ CFU/ml, 37°C, 16 hours; read-out: Minimum Inhibitory Concentration (MIC: µg/ml)
# Experimental: as §1
# A.calcoaceticus No. 4 = format: cell-based; settings: Acinetobacter calcoaceticus; A.calcoaceticus No. 4; Mueller Hinton agar, inoculum 10⁶ CFU/ml, 37°C, 16 hours; read-out: Minimum Inhibitory Concentration (MIC: µg/ml)
# Experimental: as §1
# S.marcescens No. 16-2 = format: cell-based; settings: Serratia marcescens, NO.162; S.marcescens No. 16-2 (β-Lactamase-producing strain); Mueller Hinton agar, inoculum 10⁶ CFU/ml, 37°C, 16 hours; read-out: Minimum Inhibitory Concentration (MIC: µg/ml)
# Experimental: as §1
# Ps.aeruginosa AK 109 = format: cell-based; settings: Pseudomonas aeruginosa, AK109; Ps.aeruginosa AK 109; Mueller Hinton agar, inoculum 10⁶ CFU/ml, 37°C, 16 hours; read-out: Minimum Inhibitory Concentration (MIC: µg/ml)
# Experimental: as §1
# C.freundii GN346/16 = format: cell-based; settings: Citrobacter freundii; C.freundii GN346/16; Mueller Hinton agar, inoculum 10⁶ CFU/ml, 37°C, 16 hours; read-out: Minimum Inhibitory Concentration (MIC: µg/ml)
# Experimental: as §1
# K.pneumoniae PCI-602 = format: cell-based; settings: Klebsiella pneumoniae, PCI602; K.pneumoniae PCI-602; Mueller Hinton agar, inoculum 10⁶ CFU/ml, 37°C, 16 hours; read-out: Minimum Inhibitory Concentration (MIC: µg/ml)
# Experimental: as §1
# E.cloacae Nek 39 = format: cell-based; settings: Enterobacter cloacae, NEK39; E.cloacae Nek 39 (β-Lactamase-producing strain); Mueller Hinton agar, inoculum 10⁶ CFU/ml, 37°C, 16 hours; read-out: Minimum Inhibitory Concentration (MIC: µg/ml)
# Experimental: as §1
# S.aureus JS1 = format: cell-based; settings: Staphylococcus aureus; S.aureus JS1 (β-Lactamase-producing strain); Mueller Hinton agar, inoculum 10⁶ CFU/ml, 37°C, 16 hours; read-out: Minimum Inhibitory Concentration (MIC: µg/ml)
# Experimental: as §1
# K.oxytoca GN10650 = format: cell-based; settings: Klebsiella oxytoca; K.oxytoca GN10650 (β-Lactamase-producing strain); Mueller Hinton agar, inoculum 10⁶ CFU/ml, 37°C, 16 hours; read-out: Minimum Inhibitory Concentration (MIC: µg/ml)
# Experimental: as §1
# P.vulgaris No. 33 = format: cell-based; settings: Proteus vulgaris; P.vulgaris No. 33 (β-Lactamase-producing strain); Mueller Hinton agar, inoculum 10⁶ CFU/ml, 37°C, 16 hours; read-out: Minimum Inhibitory Concentration (MIC: µg/ml)
# Experimental: as §1
# E.coli GN5482 = format: cell-based; settings: Escherichia coli; E.coli GN5482 (β-Lactamase-producing strain); Mueller Hinton agar, inoculum 10⁶ CFU/ml, 37°C, 16 hours; read-out: Minimum Inhibitory Concentration (MIC: µg/ml)
# Experimental: as §1
# Ps.cepacia 23 = format: cell-based, Pseudomonas cepacia; settings: Burkholderia cepacia; Ps.cepacia 23; Mueller Hinton agar, inoculum 10⁶ CFU/ml, 37°C, 16 hours; read-out: Minimum Inhibitory Concentration (MIC: µg/ml)
# Experimental: as §1
# Ps.maltophilia GN 12873 = format: cell-based, Pseudomonas maltophilia; settings: Stenotrophomonas maltophilia, GN12873; Ps.maltophilia GN 12873 (β-Lactamase-producing strain); Mueller Hinton agar, inoculum 10⁶ CFU/ml, 37°C, 16 hours; read-out: Minimum Inhibitory Concentration (MIC: µg/ml)
# Experimental: as §1
Compound,MIC (E.cloacae 963) [µg/mL],MIC (E.coli CSH2 (RK1)) [µg/mL],MIC (E.coli NIHJ JC2) [µg/mL],MIC (Ps.aeruginosa IFO3445) [µg/mL],MIC (P.vulgaris HX-19) [µg/mL],MIC (C.freundii GN346) [µg/mL],MIC (S.aureus BB5703) [µg/mL],MIC (S.marcescens IAM 1184) [µg/mL],MIC (K.pneumoniae No. 42) [µg/mL],MIC (S.aureus 209P NIHJ-JC1) [µg/mL],MIC (E.coli CSH(RE45)) [µg/mL],MIC (Ps.aeruginosa AKR17) [µg/mL],MIC (M.morganii GN5407) [µg/mL],MIC (A.calcoaceticus No. 4) [µg/mL],MIC (S.marcescens No. 16-2) [µg/mL],MIC (Ps.aeruginosa AK 109) [µg/mL],MIC (C.freundii GN346/16) [µg/mL],MIC (K.pneumoniae PCI-602) [µg/mL],MIC (E.cloacae Nek 39) [µg/mL],MIC (S.aureus JS1) [µg/mL],also measured
"CON=C(C(=O)NC1C(=O)N2C(C(=O)[O-])=C(C[n+]3ccc4c(O)cccc4c3)CS[C@H]12)c1csc(N)n1 (stereo partly drawn) [Reference Ex. 2, 7-[2-(2-aminothiazol-4-yl)-2-methoxyiminoacetamido]-3-(5-hydroxy-2-isoquinolinio)methyl-3-cephem-4-carboxylate, reference compound]",0.025,0.025,0.025,3.12,< 0.006,6.25,3.12,0.025,0.1,0.39,1.56,> 100,0.025,12.5,3.12,3.12,0.1,< 0.006,0.78,6.25,MIC (K.oxytoca GN10650): 12.5 µg/mL; MIC (P.vulgaris No. 33): 0.1 µg/mL; MIC (E.coli GN5482): 0.2 µg/mL; MIC (Ps.cepacia 23): 6.25 µg/mL; MIC (Ps.maltophilia GN 12873): > 100 µg/mL
"CON=C(C(=O)NC1C(=O)N2C(C(=O)[O-])=C(C[n+]3ccc4cccc(O)c4c3)CS[C@H]12)c1csc(N)n1 (stereo partly drawn) [Reference Ex. 3, 7-[2-(2-aminothiazol-4-yl)-2-methoxyiminoacetamido]-3-(8-hydroxy-2-isoquinolinio)methyl-3-cephem-4-carboxylate, reference compound]",0.05,0.025,0.05,12.5,0.0125,12.5,3.12,0.025,0.1,0.78,0.39,> 100,0.025,25,3.12,50,0.1,< 0.006,0.78,25,MIC (K.oxytoca GN10650): 3.12 µg/mL; MIC (P.vulgaris No. 33): 0.05 µg/mL; MIC (E.coli GN5482): 0.39 µg/mL; MIC (Ps.cepacia 23): 6.25 µg/mL; MIC (Ps.maltophilia GN 12873): > 100 µg/mL
"CC(C)(ON=C(C(=O)NC1C(=O)N2C(C(=O)[O-])=C(C[n+]3ccc4c(O)cccc4c3)CSC12)c1csc(N)n1)C(=O)O (stereo not drawn) [Reference Ex. 4, sodium 7-[2-(2-aminothiazol-4-yl)-2-(l-carboxylato-l-methylethoxyimino)acetamido]-3-(5-hydroxy-2-isoquinolinio)methyl-3-cephem-4-carboxylate, reference compound]",0.78,0.39,0.78,6.25,0.0125,> 100,100,0.2,0.78,12.5,0.39,> 100,0.1,25,6.25,6.25,1.56,0.2,12.5,100,MIC (K.oxytoca GN10650): 0.39 µg/mL; MIC (P.vulgaris No. 33): 0.1 µg/mL; MIC (E.coli GN5482): 6.25 µg/mL; MIC (Ps.cepacia 23): 1.56 µg/mL; MIC (Ps.maltophilia GN 12873): 50 µg/mL
